Measurements reported in PMC9739180, “Discovery of a Flavonoid FM04 as a Potent Inhibitor to Reverse P-Glycoprotein-Mediated Drug Resistance in Xenografts and Improve Oral Bioavailability of Paclitaxel” (International Journal of Molecular Sciences, 2022).
Like-named read-outs stand apart in the source and are kept apart here.

Assays:
[1] = biological target: T1, P-gp (Homo sapiens, UniProt P08183); assay: Reversal of P-gp-mediated MDR in LCC6MDR cells (MTS cell viability, 5 days)
Protocol: To each well of a 96-well plate, 6500 cells of LCC6MDR were seeded in 180 μL supplemented medium. A 10 µL compound (FD18, 14a, FM04 or FM327) at different concentrations (0, 62.5, 125, 250, 500 and 1000 nM) was added to the well. […] The final volume in each well was 200 µL and the 96-well plate was incubated at 37 °C for 5 days. The cell viability was determined using the MTS assay as reported previously. The % of cell survival, IC50 of anticancer drugs towards the LCC6MDR and the EC50 of modulators were analyzed using nonlinear regression in Prism 5.0 (Prism version 5.0, GraphPad software, San Diego, CA, USA).

[2] = biological target: T1, P-gp; parameters: expressed in transfected cells; host or cells: MDA435/LCC6MDR (human melanoma); conditions: read-out: EC50 for reversing PTX resistance; cited from earlier work
[3] = system: LCC6 cells; assay: IC50 of anticancer drugs in wild-type LCC6 with or without FM04; format: cell-based, human; conditions: for IC50: Homo sapiens; for RF, LCC6 + DMSO: IC50 in LCC6MDR without FM04 / IC50 in LCC6; for RF, LCC6 + 1 μM FM04: IC50 in LCC6MDR without FM04 / IC50 in LCC6 with FM04
Description: Table S1. IC50 of anticancer drugs in LCC6 and LCC6MDR and P-gp modulating activity of FM04.
fold): IC50 of an anticancer drug of LCC6MDR without FM04/IC50 of an anticancer of LCC6 with or without
FM04 or LCC6MDR with FM04. N = 2 - 8 independent experiment. The IC50 values were presented as mean ±
standard error mean. /: not determined.

[4] = In vivo monitoring of FD18 and its metabolites in plasma after I.V. FD18; parameters: species or system SD rats; conditions: after FD18 5 mg/kg I.V.; for AUC(0-t) / Cmax / Tmax: Sprague-Dawley, rat, iv
Protocol: Figure 3 Proposed metabolism pathway of FD18 and its metabolites formed in vivo. (A) metabolism study of FD18 was conducted on human liver microsomes (HLM) and rat liver microsomes (RLM) in vitro. Chemical structure of the 3 metabolites was predicted by LC/QTOF-MS/MS and confirmed by the synthetic compounds (Figure 2E–J). The pathways for biotransformation of FD18 into FM04 was proposed. (B) plasma concentration profile of FD18 and the in vivo formation of metabolites M1, M2 and M3. After I.V. injection of FD18 (5 mg/kg) into […], plasma was collected at 10, 30, 60, 120, 240, 420 and 600 min, respectively. The concentration of FD18 at each time point was determined by UPLC-MS/MS. Its plasma concentration was further quantified with peak area ratio of FD18 against D7-18. […] In vivo formation of metabolites M1, M2 and M3 were monitored and quantified by UPLC-MS/MS with corresponding calibration curve of 14a, FM04 and FM327. Pharmacokinetic parameter AUC was calculated by the pharmacokinetic software-Summit® PK solutions 2.0 (Summit Research Service, Ashland, Wilmington, DE, USA).
FD18 stock solution was freshly prepared in 33% Cremophor EL, 33% ethanol and 33% saline at a concentration of 9.5 mg/mL. FD18 stock solution was then diluted with saline to form a 4 mg/mL working solution for animal injection. SD rats were intravenously (I.V.) administered with FD18 at 5 mg/kg (n = 3). Blood samples (approx. 300 μL) were taken via jugular vein at 10, 30, 60, 120, 240 and 420 min post-administration. Blood samples were centrifuged at 16,100× g for 10 min to obtain plasma. Plasma samples (50 µL) were spiked with 15 μL of internal standard (IS) (D7-NBn, 10 μg/mL). Two hundred microliter of methanol was added for protein precipitation. Samples were centrifuged at 16,100× g for 10 min prior to filtering by 0.22 μm syringe filter for UPLC-MSMS analysis.
The UPLC-MS/MS system consists of an Agilent 1260 infinity UPLC interfaced with a triple quadrupole mass spectrometer (Agilent 6460) equipped with an electrospray ionization source in positive mode. Zorbax Eclipse XDB-C8 (4.6 × 150 mm, 5 µM) was used for separation. The mobile phase for chromatographic separation consisted of methanol + 0.1% formic acid (solvent B) and Milli-Q water + 0.1% formic acid (solvent A) with gradient elution of 30% solvent B to 100% solvent B in 5 min. The elution condition was allowed for equilibrium from the 7th min onward. The analysis time for each injection was 13 min. The flow rate was 0.4 mL/min. The synthetic compound D7-NBn, the deuterated benzyl form of FD18, was used as the internal standard (IS) for the quantification of the three metabolites. Multiple reaction monitoring (MRM) was set to monitor the transitions of D7-NBn [M+H]^+, FD18 [M+H]^+, M1 [M+H]^+, M2 [M+H]^+ and M3 [M+H]^+ at 731.01 > 98.1 m/z, 724.01 > 91.1 m/z, 634.01 > 114 m/z, 416.01 > 91.1 m/z and 327.01 > 239 m/z, respectively. The coefficient of determination (R^2) for 14a, FM04 and FM327 were above 0.99. The dynamic range for the metabolites in the current setting is 78 ng/mL to 2.44 ng/mL.

[5] = system: L929; parameters: method as in earlier work; conditions: mouse fibroblast cell line; read-out: Cytotoxicity IC50, L929; cited from earlier work
[6] = biological target: T1, P-gp; assay: Intracellular DOX accumulation assay in LCC6MDR cells
[7] = biological target: T1, P-gp; parameters: expressed in transfected cells; host or cells: MDA435/LCC6MDR (human melanoma); method as in PMID 22320402; conditions: LCC6MDR; cited from earlier work
[8] = oral co-administration; cited from earlier work
[9] = biological target: T2, MRP1 (Homo sapiens, UniProt P33527); assay: MRP1-modulating activity in 2008/MRP1 cells (MTS); format: cell-based; conditions: no modulator; read-out: IC50 of DOX in 2008/MRP1, DMSO
T2 construct: expressed in transfected cells; host or cells: 2008/MRP1 (human ovarian cancer)
T2 sequence (P33527 whole entry): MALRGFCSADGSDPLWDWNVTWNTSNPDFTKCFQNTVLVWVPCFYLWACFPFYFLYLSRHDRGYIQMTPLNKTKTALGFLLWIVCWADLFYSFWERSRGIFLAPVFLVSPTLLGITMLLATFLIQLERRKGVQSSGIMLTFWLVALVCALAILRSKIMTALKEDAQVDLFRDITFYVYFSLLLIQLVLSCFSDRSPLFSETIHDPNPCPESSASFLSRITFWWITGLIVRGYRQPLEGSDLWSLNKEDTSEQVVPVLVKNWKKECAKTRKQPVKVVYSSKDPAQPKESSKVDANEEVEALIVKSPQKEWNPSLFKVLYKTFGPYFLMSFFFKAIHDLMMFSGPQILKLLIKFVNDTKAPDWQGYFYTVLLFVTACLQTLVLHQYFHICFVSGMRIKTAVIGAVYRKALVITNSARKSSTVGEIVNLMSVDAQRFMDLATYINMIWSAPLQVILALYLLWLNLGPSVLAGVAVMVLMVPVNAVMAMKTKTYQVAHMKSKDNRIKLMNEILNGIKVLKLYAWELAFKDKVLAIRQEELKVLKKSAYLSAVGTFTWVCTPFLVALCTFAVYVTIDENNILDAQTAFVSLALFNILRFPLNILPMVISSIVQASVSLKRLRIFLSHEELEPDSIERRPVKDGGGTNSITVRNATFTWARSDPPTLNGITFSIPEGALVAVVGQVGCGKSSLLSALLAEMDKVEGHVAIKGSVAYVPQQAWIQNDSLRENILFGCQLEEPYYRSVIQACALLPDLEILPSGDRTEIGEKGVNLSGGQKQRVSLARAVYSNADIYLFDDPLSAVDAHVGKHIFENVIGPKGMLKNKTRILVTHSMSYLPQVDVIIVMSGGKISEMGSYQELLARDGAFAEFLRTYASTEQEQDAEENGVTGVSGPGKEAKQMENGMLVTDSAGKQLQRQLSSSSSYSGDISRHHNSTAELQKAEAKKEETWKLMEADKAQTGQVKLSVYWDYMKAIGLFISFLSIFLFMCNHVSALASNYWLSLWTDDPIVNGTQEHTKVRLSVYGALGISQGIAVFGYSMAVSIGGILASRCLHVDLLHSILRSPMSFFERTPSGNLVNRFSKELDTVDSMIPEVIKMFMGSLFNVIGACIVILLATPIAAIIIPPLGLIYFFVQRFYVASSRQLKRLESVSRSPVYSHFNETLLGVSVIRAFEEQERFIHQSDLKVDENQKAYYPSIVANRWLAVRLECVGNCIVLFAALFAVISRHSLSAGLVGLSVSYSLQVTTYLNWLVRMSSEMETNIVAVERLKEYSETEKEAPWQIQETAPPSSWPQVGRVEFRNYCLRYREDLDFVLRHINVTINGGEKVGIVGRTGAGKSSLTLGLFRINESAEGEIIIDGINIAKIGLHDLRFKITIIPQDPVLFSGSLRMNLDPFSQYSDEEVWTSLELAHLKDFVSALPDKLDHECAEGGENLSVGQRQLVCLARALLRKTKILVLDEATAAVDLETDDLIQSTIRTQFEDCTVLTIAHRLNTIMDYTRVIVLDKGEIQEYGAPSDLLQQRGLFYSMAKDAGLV
Protocol: (§1) The final volume in each well of the 96-well plate was 200 μL. The plate was then incubated for 5 days at 37 °C. The cell viability was determined using an MTS assay as reported previously.

[10] = biological target: T3, BCRP (Homo sapiens, UniProt Q9UNQ0); assay: BCRP-modulating activity in HEK293/R2 cells (MTS); format: cell-based; conditions: no modulator; read-out: IC50 of Topotecan in HEK293/R2, DMSO
T3 construct: expressed in transfected cells; host or cells: HEK293/R2
T3 sequence (Q9UNQ0 1-655): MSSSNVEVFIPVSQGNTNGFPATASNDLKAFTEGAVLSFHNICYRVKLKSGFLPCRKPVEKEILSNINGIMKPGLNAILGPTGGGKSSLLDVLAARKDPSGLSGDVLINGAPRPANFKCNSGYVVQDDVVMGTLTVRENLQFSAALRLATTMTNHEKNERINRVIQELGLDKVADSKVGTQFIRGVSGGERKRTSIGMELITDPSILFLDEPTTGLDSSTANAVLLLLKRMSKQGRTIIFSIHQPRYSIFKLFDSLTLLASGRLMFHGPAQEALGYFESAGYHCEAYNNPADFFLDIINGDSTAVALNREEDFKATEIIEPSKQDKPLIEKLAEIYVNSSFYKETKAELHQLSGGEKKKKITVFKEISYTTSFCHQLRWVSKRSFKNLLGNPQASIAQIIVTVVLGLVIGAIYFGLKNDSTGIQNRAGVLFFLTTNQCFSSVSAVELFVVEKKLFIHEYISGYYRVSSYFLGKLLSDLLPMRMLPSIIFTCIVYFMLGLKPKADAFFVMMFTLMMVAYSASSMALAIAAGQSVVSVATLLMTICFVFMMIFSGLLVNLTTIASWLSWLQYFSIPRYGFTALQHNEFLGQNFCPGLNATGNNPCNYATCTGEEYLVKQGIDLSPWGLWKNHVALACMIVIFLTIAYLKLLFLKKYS
Protocol: as §1

[11] = LCC-6, wild-type LCC6, no modulator, read-out: IC50 of anticancer drug, LCC6 + DMSO

T1 sequence (P08183 whole entry): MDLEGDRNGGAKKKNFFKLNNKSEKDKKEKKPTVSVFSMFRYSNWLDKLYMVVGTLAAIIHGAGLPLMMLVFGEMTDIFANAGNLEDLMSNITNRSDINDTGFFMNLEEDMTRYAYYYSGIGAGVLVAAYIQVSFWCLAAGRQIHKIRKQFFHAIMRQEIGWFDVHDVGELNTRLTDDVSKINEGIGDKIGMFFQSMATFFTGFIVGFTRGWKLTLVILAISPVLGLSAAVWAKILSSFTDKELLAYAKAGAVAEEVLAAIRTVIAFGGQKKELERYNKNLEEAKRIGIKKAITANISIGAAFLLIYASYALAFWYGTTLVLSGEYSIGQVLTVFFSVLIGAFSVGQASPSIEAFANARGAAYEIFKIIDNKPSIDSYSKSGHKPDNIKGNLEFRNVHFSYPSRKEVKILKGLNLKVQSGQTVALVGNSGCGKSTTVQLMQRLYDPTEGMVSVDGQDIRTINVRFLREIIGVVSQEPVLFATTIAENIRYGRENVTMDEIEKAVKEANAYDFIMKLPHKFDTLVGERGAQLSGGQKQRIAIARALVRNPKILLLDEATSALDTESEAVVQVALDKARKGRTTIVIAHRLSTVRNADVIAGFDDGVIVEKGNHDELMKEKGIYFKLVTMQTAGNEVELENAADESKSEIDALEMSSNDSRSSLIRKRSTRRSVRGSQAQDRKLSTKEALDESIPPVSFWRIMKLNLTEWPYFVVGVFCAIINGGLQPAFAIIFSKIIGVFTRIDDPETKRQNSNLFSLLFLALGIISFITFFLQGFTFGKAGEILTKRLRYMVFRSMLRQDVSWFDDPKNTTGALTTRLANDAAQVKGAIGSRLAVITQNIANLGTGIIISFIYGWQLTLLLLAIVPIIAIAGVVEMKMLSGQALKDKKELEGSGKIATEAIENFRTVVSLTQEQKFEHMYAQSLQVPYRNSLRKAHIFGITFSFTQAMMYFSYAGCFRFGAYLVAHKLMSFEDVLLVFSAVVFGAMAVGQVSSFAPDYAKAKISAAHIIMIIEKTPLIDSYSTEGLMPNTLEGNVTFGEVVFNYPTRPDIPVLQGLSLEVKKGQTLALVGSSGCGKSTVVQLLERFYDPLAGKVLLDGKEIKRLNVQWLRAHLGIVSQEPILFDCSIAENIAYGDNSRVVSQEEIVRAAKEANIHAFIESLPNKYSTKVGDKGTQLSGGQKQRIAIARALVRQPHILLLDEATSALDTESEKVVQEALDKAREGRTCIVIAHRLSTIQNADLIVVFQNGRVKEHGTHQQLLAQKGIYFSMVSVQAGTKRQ

## O=c1cc(-c2ccc(O)cc2)oc2cc(O)cc(O)c12 [apigenin]
[1]
  RF (relative-fold): 1.0
[2]
  EC50: > 10000 nM

## CC[C@]1(O)C[C@@H]2CN(CCc3c([nH]c4ccccc34)[C@@](C(=O)OC)(c3cc4c(cc3OC)N(C)[C@H]3[C@@](O)(C(=O)OC)[C@H](OC(C)=O)[C@]5(CC)C=CCN6CC[C@]43[C@@H]65)C2)C1 [Vinblastine, vinblastine]
[1]
  RF, LCC6MDR + 1 μM FM04: 61.3
  RF, LCC6MDR + DMSO: 1.0
[3]; [11]
  IC50: 0.38 ± 0.14 nM
[3]
  RF, LCC6 + DMSO: 24.2
  RF, LCC6 + 1 μM FM04: 10.7

## O=c1cc(-c2ccc(OCCOCCO)cc2)oc2ccccc12 [FM327, 2-(4-(2-(2-hydroxyethoxy)ethoxy)phenyl)-4H-chromen-4-one]
[1]; EC50 needed for reversing MDR in LCC6MDR cells: PTX, LCC6MDR, PTX resistance
  EC50: > 1000 nM
[4]
  AUC(0-t): 49.1 ng·h/mL
  Cmax: 21 ng/mL
  Tmax: 50 min
[4]; listed as M3
  Normalized AUC (systemic exposure relative to FD18): 7%

## O=c1cc(-c2ccc(OCCOCCOCCOCCOc3ccc(-c4cc(=O)c5ccccc5o4)cc3)cc2)oc2ccccc12 [compound 61]
[1]
  RF (relative-fold): > 28

## O=C1c2c(O)ccc(O)c2C(=O)c2c(NCCNCCO)ccc(NCCNCCO)c21 [Mitoxantrone, mitoxantrone]
[1]
  RF, LCC6MDR + 1 μM FM04: 17.3
  RF, LCC6MDR + DMSO: 1.0
[3]; [11]
  IC50: 37.4 ± 11.7 nM
[3]
  RF, LCC6 + DMSO: 28.1

## O=c1cc(-c2ccc(OCCOCCN(CCOCCOc3ccc(-c4cc(=O)c5ccccc5o4)cc3)Cc3ccccc3)cc2)oc2ccccc12 [FD18]
[1]
  RF (relative-fold): > 68
[1]; EC50 for P-gp modulation, range over PTX reversal and DOX accumulation in LCC6MDR
  EC50: 116 to 148 nM
[4]
  AUC(0-t): 682 ng·h/mL
[5]
  IC50: 85000 ± 5000 nM
[6]
  EC50: 116 nM
[7]
  Transport substrate of P-gp: substrate of P-gp

## CC(C)c1nc(CN(C)C(=O)N[C@H](C(=O)N[C@@H](Cc2ccccc2)C[C@H](O)[C@H](Cc2ccccc2)NC(=O)OCc2cncs2)C(C)C)cs1 [ritonavir]
[8]
  fold enhancement of the AUC of oral PTX vs a single oral dose of PTX: 2.5 fold

## CC[C@]1(O)C[C@H]2CN(CCc3c([nH]c4ccccc34)[C@@](C(=O)OC)(c3cc4c(cc3OC)N(C=O)[C@H]3[C@@](O)(C(=O)OC)[C@H](OC(C)=O)[C@]5(CC)C=CCN6CC[C@]43[C@@H]65)C2)C1 [Vincristine, vincristine]
[1]
  RF, LCC6MDR + 1 μM FM04: 68.0
  RF, LCC6MDR + DMSO: 1.0
[3]; [11]
  IC50: 0.71 ± 0.32 nM
[3]
  RF, LCC6 + DMSO: 39.3
  RF, LCC6 + 1 μM FM04: 21.5

## O=c1cc(-c2ccc(OCCOCCNCCOCCOc3ccc(-c4cc(=O)c5ccccc5o4)cc3)cc2)oc2ccccc12 [14a, 1,13-Bis[4′-(4H-chromen-4-on-2-yl)phenyl]-1,4,10,13-tetraoxa-7-azatridecane]
[1]
  fold lower activity than FD18 in reversing PTX resistance: 2.1 fold
[4]
  AUC(0-t): 78.9 ng·h/mL
  Cmax: 18 ng/mL
  Tmax: 50 min
[4]; listed as M1
  Normalized AUC (systemic exposure relative to FD18): 12%

## COc1cccc2c1C(=O)c1c(O)c3c(c(O)c1C2=O)C[C@@](O)(C(C)=O)C[C@@H]3O[C@H]1C[C@H](N)[C@H](O)[C@H](C)O1 [Daunorubicin, daunorubicin]
[1]
  RF, LCC6MDR + 1 μM FM04: 6.3
  RF, LCC6MDR + DMSO: 1.0
[3]; LCC-6, read-out: IC50 of anticancer drug, LCC6 + DMSO
  IC50: 22.1 ± 2.2 nM
[3]
  RF, LCC6 + DMSO: 60.5

## COc1cccc2c1C(=O)c1c(O)c3c(c(O)c1C2=O)C[C@@](O)(C(=O)CO)C[C@@H]3O[C@H]1C[C@H](N)[C@H](O)[C@H](C)O1 [DOX, doxorubicin]
[1]
  RF, LCC6MDR + 1 μM FM04: 25.2
  RF, LCC6MDR + DMSO: 1.0
[9]
  IC50: 616 ± 54.2 nM
[3]; [11]
  IC50: 27 ± 4.6 nM
[3]
  RF, LCC6 + DMSO: 38.6

## CC[C@@]1(O)C(=O)OCc2c1cc1n(c2=O)Cc2cc3c(CN(C)C)c(O)ccc3nc2-1 [Topotecan, topotecan]
[10]
  IC50: 225 ± 32 nM
